Our source for the concentration values is article PMC11984924, “Dipeptidic Phosphonates: Potent Inhibitors of Pseudomonas aeruginosa Elastase B Showing Efficacy in a Murine Keratitis Model” (Advanced Science, 2025).

Structures are written as SMILES. Bounds are passed on as bounds.

This data set can be described thus: (R)-30 levels in serum of keratitis mice. It is filed as in vivo. The following applies: C57BL/6, mouse, 5 µL of 1 mg/mL (R)-30 per dose (nine doses, every 8 h), keratitis mice after topical ocular dosing. The procedure: 3.15 Bioanalytical sample preparation of keratitis samples for determination of
concentration of ( R)-30 in eye and serum
All PD serum and eye homogenate samples were analyzed via HPLC -MS/MS using an Agilent
1290 Infinity II HPLC system and coupled to an AB Sciex QTrap6500+ mass spectrometer.
First, a calibration curve was prepared by spiking different concentrations of (R)-30 into the
respective matrix (mouse serum (pooled, from CD -1 mice) for plasma samples, isotonic
sodium chloride solution for eye homogenate samples). Caffeine was used as an internal
standard. In addition, quality control samples (QCs) were prepared for (R)-30 with the
respective matrix. The following extraction procedure was used: 7.5 μL of a serum sample
(calibration samples, QCs or PD samples) was extracted with 37.5 μL of methanol containing
12.5 ng/mL of caffeine as internal standard for 5 min at 2,000 r pm on an Eppendorf MixMate®
vortex mixer. Then samples (serum) were spun down at 13,000 rpm for 5 min. Supernatants
were transferred to standard HPLC-glass vials. 50 μL of an eye homogenate sample […]
standard were analyzed using MultiQuant 3.0 software (AB Sciex). […]
for quantification are marked with a ‘Q’ in the table, the other MS/MS pairs for the respective
compound were used for qualification. Peaks of PD samples were quantified using the
calibration curve. The accuracy of the calibration curve was determined using QC s […]

The compound `CC(=O)c1ccc(NC(=O)[C@@H](NC(=O)[C@@H](CC(C)C)P(=O)(O)O)C(C)C)cc1` [(R)‐30] returned a concentration at 3 days post infection below 500 nM.
